Legend:
[1] = tested on: K1 cells xenograft tumors; test: Xenograft tumorigenicity assay; type: in vivo; settings: K1 xenograft in nude mice
Description: FIG. 1A-1G. Cooperative role of BRAF V600E and TERT in the oncogenic behavior and tumor growth of cancer cells. Specific shRNA against BRAF and siRNA against TERT were used to knock down BRAF and TERT in the indicated cancer cells, respectively, followed by performance of assays of MTT of cell proliferation (FIG. 1A), transwell cell migration (FIG. 1B), cell invasion (FIG. 1C), and colony formation in soft agar (FIG. 1D) (with representative images shown in the left panel and the average colony numbers in the right panel). Western blotting analysis of TERT and phosphorylation of ERK (p-ERK) was performed for K1 cells (FIG. 1E), from which xenograft tumors were derived to test the role of TERT and BRAF V600E in tumor development and growth (FIG. 1F, FIG. 1G). […] The “Control” in FIG. 1A-1D represented the combination of scramble shRNA and Control siRNA. […] The red horizontal bar on the left of FIG. 1D represents 100 μm; colonies larger than this size were counted and colony numbers are shown on the right of the panel. […]
All animal experiments were approved and performed according to the guidelines of the Institutional Animal Care and Use Committee (IACUC) of Johns Hopkins University. […] Tumor size was measured twice a week on the skin surface of the animal using a caliper and tumor volume was calculated using the formula (width^2×length)/2 as previously described. […]

[2] = tested on: MEK and ERK phosphorylation; settings: wild-type BRAF cells; previous finding (refs 28, 29); cited from earlier work
[3] = tested on: TERT promoter; test: TERT promoter luciferase reporter assay in K1 cells; type: cell-based, human; settings: K1 cells harboring BRAF V600E; PLX4032 0.5 uM
Method: FIG. 2A-2G. BRAF V600E/MAPK pathway regulated TERT expression. (FIG. 2A) TERT expression was analyzed by qRT-PCR in cells treated with 0.5 uM PLX4032 or 0.2 uM AZD6244 for 24 hours (upper panel). The corresponding levels of phosphorylated ERK (p-ERK), total ERK (t-ERK), and beta-actin were detected by Western blotting (lower panel). The relative TERT mRNA expression levels were normalized to the DMSO control group. (FIG. 2B) Luciferase reporting assay of TERT promoter activities in K1 cells treated with DMSO or PLX4032 (0.5 uM). (FIG. 2C, 2D) Specific shRNA against BRAF were used to knock down BRAF in thyroid cancer cell lines BCPAP and K1 and melanoma cell line A375. Scramble shRNA was used as control. Cells were then subjected to Western blotting (FIG. 2C) and qRT-PCR (FIG. 2D). […]
For promoter activity assay, cells were seeded in triplicate into a 24-well plate and then transfected with 300 ng pGL3 plasmids containing the TERT, GAPBA, or GABPB promoter, together with 12 ng Renilla luciferase (pRL-TK) plasmid (normalizing control) using Lipofectamine 3000 (Invitrogen). At 24 hours after the transfection, cells were lysed and luciferase activities were measured using the Dual-Luciferase Reporter Assay System (Promega). Results were presented as relative luciferase activities, which were obtained by dividing firefly luciferase values with Renilla luciferase values for each set of reading.

CCCS(=O)(=O)Nc1ccc(F)c(C(=O)c2c[nH]c3ncc(-c4ccc(Cl)cc4)cc23)c1F [PLX4032]
tumor growth ([1]; 10 mg/kg PLX4032 daily by oral gavage): inhibited tumor growth
tumor growth ([1]; PLX4032 10 mg/kg daily combined with stable TERT knockdown (shTERT)): nearly completely abolished tumor growth
MEK and ERK phosphorylation [2]: induced MEK and ERK phosphorylation
activities of the mutated TERT promoter (C228T or C250T) [3]: dramatically reduced
activity of the wild-type TERT promoter [3]: limited effect

Source: patent US11911356B2, “Regulation of mutant TERT by BRAF V600E/map kinase pathway through FOS/GABP in human cancer” (THE JOHNS HOPKINS UNIVERSITY, priority 2017, dated 2024)
